The numbers were not newly measured in patent US20060177499A1, “Method for the manufacture of a pharmaceutical composition in the form of tablets containing a fibrate and tablets obtained according to the method” (priority 2003, published 2006), which cites them from elsewhere.

The conditions of the series: long-term treatment; e.g. rhabdomyolysis, asthenia, increase of transaminases, hepatic toxicity.

On to `CC(C)OC(=O)C(C)(C)Oc1ccc(C(=O)c2ccc(Cl)cc2)cc1` [fenofibrate, Isopropyl 2-[4-(4-chlorobenzoyl)phenoxy]-2-methylpropionate], for which the adverse effects result is recorded as “not completely devoid of adverse effects”.
